Reference: the SangsterLogP compilation

Experiment: method code SF-AS, from DOI: 10.1007/bf00500963, PMID: 600309

Compound | logP
Cc1cc(Cl)cc(C)c1N=C1NCCN1 | 2.5
COc1cc(Cl)c(N=C2NCCN2)c(Cl)c1 | 1.6
Cc1cc(C)c(N=C2NCCN2)c(Cl)c1 | 2.1
Fc1cccc(Cl)c1N=C1NCCN1 | 1.45
Clc1ccccc1N=C1NCCN1 | 1.36
Cc1ccccc1N=C1NCCN1 | 1.28
Cc1cc(Cl)cc(Cl)c1N=C1NCCN1 | 2.38
Brc1cc(Br)c(N=C2NCCN2)c(Br)c1 | 2.74
Cc1ccc(N=C2NCCN2)c(C)c1 | 1.78
Clc1cc(Br)cc(Cl)c1N=C1NCCN1 | 2.66
Cc1cc(Cl)c(NC2=NCCN2)c(Cl)c1 | 1.92
Clc1cccc(Cl)c1N=C1NCCN1 | 1.59
Cc1cc(C)c(N=C2NCCN2)c(C)c1 | 2.32
CCc1cccc(CC)c1N=C1NCCN1 | 2.6
Cc1cc(Br)cc(C)c1N=C1NCCN1 | 2.8
Clc1cccc(Br)c1N=C1NCCN1 | 1.73
O=[N+]([O-])c1cc(Cl)c(N=C2NCCN2)c(Cl)c1 | 2.1
Clc1ccc(Cl)c(N=C2NCCN2)c1 | 2.04
Clc1cccc(NC2=NCCN2)c1Cl | 2.01
